{"source": "a melting point compilation (Tetko et al.; mined from patent text by program, amines drawn as free bases though some values may be those of a salt)"}
{"units": {"melting point": "°C"}}
{"compound": "CSc1nc(N)cc(OCCOCP(=O)(O)O)n1", "melting point": "210 to 211"}
{"compound": "Cc1ccc(C2(C=O)C3CC4CC(C3)CC2C4)cc1", "note": "(stereo not given)", "melting point": "93 to 97"}
{"compound": "CCCCc1ccc(C(=O)O)c2ccccc12", "melting point": "136 to 137"}
{"compound": "CCCn1nnn(-c2cc(OC(C)=O)c(Cl)cc2Cl)c1=O", "melting point": "91 to 92"}
{"compound": "CN(C)CCN(CCC12CC3CC(CC(C3)C1)C2)C(=O)NCCCc1ccncc1", "melting point": "104 to 106"}
{"compound": "CCOC(=O)c1c(O)nsc1C", "melting point": 69}
{"compound": "CCNC(=O)CCCC1CCN(Cc2cnc3cc(NC(=O)c4ccc(-c5ccc(F)cc5)cc4)c(C)cc3c2)CC1", "melting point": 240}
{"compound": "Nc1ccc(NCCc2ccccc2)c(S(=O)(=O)CCO)c1", "melting point": 197}
{"compound": "CC1(C)CC(N2CCCCCC2=O)CC(C)(C)N1", "melting point": "113 to 117"}
{"compound": "C=Cc1ccc(-c2ccc3cc(C(=O)OCc4ccccc4)ccc3c2)cc1C12CC3CC(CC(C3)C1)C2", "melting point": "158 to 160"}
{"compound": "COc1ccc(NS(=O)(=O)c2ccc(NC3=C(Cl)C(=O)c4ccccc4C3=O)cc2OC)cc1", "melting point": "165 to 167"}
{"compound": "COC(=O)C=C(Nc1cc2c(cc1OCc1ccccc1)N(C(=O)OC(C)(C)C)CC2COC(C)=O)C(F)(F)F", "note": "(stereo not given)", "melting point": "114 to 115"}
{"compound": "O=C(c1ccccc1)n1c2cc(O)c(O)cc2c2ccc(O)c(O)c21", "melting point": "242 to 243"}
{"compound": "COc1ccc(SSc2ccc(OC)cc2C(N)=O)c(C(N)=O)c1", "melting point": "188 to 189"}
{"compound": "CC(C)(C)C(=O)Nc1nc(CC(=O)Nc2cccc(C(F)(F)F)c2)cs1", "melting point": "147 to 152"}
{"compound": "O=C(O)CCc1cc2nc(Cl)ccc2n1S(=O)(=O)c1cccc(OC(F)(F)F)c1", "melting point": 146}
{"compound": "CCNCC1CCN(c2c(F)cc3c(=O)c(C(=O)O)cn(C4CCC4)c3c2F)C1", "note": "(stereo not given)", "melting point": "223 to 225"}
{"compound": "CCOC(=O)c1nc(O)sc1C(=O)CBr", "melting point": "105 to 108"}
{"compound": "COc1cccc(-c2ccc3c(c2)C2(CCCCC2)C(=NOCc2ccccc2)N3)c1", "melting point": "101 to 104"}
{"compound": "COc1nc(C)cnc1N(C(=O)OCC(C)C)S(=O)(=O)c1cccnc1Cl", "melting point": "99 to 101"}
{"compound": "Cc1c(C)c2c(c(C)c1Br)OC(C)(C)C2=O", "melting point": "125 to 127"}
{"compound": "COc1cc(NC(C)C)ccc1CN1C(=O)C(C)(c2ccccc2Cl)c2cc(Cl)ccc21", "note": "(stereo not given)", "melting point": 137}
{"compound": "Nc1nc2c(ncn2COCCO)c(=S)[nH]1", "melting point": "251 to 254"}
{"compound": "N#CCC1COc2ccccc2C1", "note": "(stereo not given)", "melting point": "54 to 55.5"}
{"compound": "NC(=O)CN1C(=O)[C@@H](NC(=O)[C@@H]2CCC(=O)C2)[C@H](c2ccccc2)Sc2ccccc21", "melting point": "135 to 150"}
{"compound": "CCOc1ccc(NC(=S)SC)cc1F", "melting point": 108}
{"compound": "CCc1c2c(nn1-c1ccccc1)c(=O)[nH]c1ccccc12", "melting point": "331 to 334"}
{"compound": "CCCc1nc2c(N)nc(C)c(C)c2n1CCCCN(OC)C(=O)c1ccccc1", "melting point": "136 to 137"}
{"compound": "CC(C)(Oc1ccc(N)cc1)C(=O)O", "melting point": "214 to 216"}
{"compound": "CCCN(CCCc1c[nH]c2c(F)cc(F)cc12)C1COc2c(C(N)=O)ccc(F)c2C1", "note": "(stereo not given)", "melting point": 130}
{"compound": "COC(=O)[C@H](C)NC(=O)c1cccc([N+](=O)[O-])c1N", "melting point": 133}
{"compound": "CC(=O)Oc1ccc(CC(=O)Nc2cccc(/C=C/c3nc(C4CCC4)cs3)c2)c(C(=O)O)c1", "melting point": "176 to 179"}
{"compound": "NS(=O)(=O)c1ccsc1C1=NOCCO1", "melting point": 180}
{"compound": "O=C(Nc1ccc(S(=O)(=O)C(F)(F)F)cc1Cl)c1cc(S(=O)c2ccc(F)cc2)c2ccccc2c1O", "note": "(stereo not given)", "melting point": "198 to 200"}
{"compound": "O=C1NC(=O)C(Cc2ccc(OCC3CCN(C(=O)OCc4ccccc4)CC3)cc2)S1", "note": "(stereo not given)", "melting point": "54 to 56"}
{"compound": "Cc1nccn1-c1cccc(O)c1", "melting point": "178 to 181"}
{"compound": "CN(Cc1ccccc1)C(=O)c1cnc2c3c(c(F)cc2c1)C(=O)C(C(=O)O)C=N3", "note": "(stereo not given)", "melting point": "168 to 171"}
{"compound": "CN(C)C=C(C=O)c1cccc(F)c1", "melting point": "42 to 43.5"}
{"compound": "COc1cccc(CNC(=O)c2cc3c(=O)n(CC#N)c(=O)n(C)c3s2)c1", "melting point": "159 to 163"}
{"compound": "O=C(c1c(F)cccc1F)N1CNCN(c2ccc(Cl)cc2)C1=O", "melting point": "167 to 168"}
{"compound": "COc1cc(N)c(OCc2ccccc2)cc1OC", "melting point": 74}
{"compound": "N#CC(c1ccccc1)c1ccc(Cl)nn1", "note": "(stereo not given)", "melting point": 131}
{"compound": "CC(C)(C)OC(=O)CCOCCc1cccc(-c2nc(=O)c3ccccc3s2)n1", "melting point": "67.7 to 68.5"}
{"compound": "N#Cc1cc(C(=O)NNC(=O)c2occc2-c2ccccc2OCC2CCCCC2)ccc1O", "melting point": "142 to 143"}
{"compound": "CC1c2ccc(F)n2-c2cc(F)c(F)cc2N1S(=O)(=O)c1ccc(O)cc1", "note": "(stereo not given)", "melting point": "184 to 189"}
{"compound": "O=C1CN2Cc3cc(OCCCC(=O)N(CCO)CC4CCCCC4)ccc3N=C2N1", "melting point": "223 to 224"}
{"compound": "ClCCCOc1ccc(/C=C/c2nc3ccccc3o2)cc1", "melting point": "82 to 83"}
{"compound": "Cc1cc(-n2nnc(-c3ccccc3)n2)sc1C(=O)NCc1ccccc1", "melting point": "155 to 158"}
{"compound": "CCOC(=O)COc1cc(OC)c2c(c1S(N)(=O)=O)OC1(CCCCC1)CC2=O", "melting point": "188 to 190"}
{"compound": "COc1cc(C)nc(C(=O)O)n1", "melting point": "140 to 141"}
